The results in this text go back to BindingDB's records for patent US20250074891 (Anaxis Pharma, 2025).

The term pKd denotes −log10 of the Kd, conventionally taken in molar units. A higher pKd goes with a small Kd. A word on the Kd: it is the constant that tells how readily two partners part at equilibrium. High values mean lower affinity, low ones higher affinity.

What all share (test): In Vitro Assay
In assay [1] the target is T1, Receptor-interacting serine/threonine-protein kinase 1 (Homo sapiens, UniProt Q13546).
T1 sequence (Q13546 whole entry): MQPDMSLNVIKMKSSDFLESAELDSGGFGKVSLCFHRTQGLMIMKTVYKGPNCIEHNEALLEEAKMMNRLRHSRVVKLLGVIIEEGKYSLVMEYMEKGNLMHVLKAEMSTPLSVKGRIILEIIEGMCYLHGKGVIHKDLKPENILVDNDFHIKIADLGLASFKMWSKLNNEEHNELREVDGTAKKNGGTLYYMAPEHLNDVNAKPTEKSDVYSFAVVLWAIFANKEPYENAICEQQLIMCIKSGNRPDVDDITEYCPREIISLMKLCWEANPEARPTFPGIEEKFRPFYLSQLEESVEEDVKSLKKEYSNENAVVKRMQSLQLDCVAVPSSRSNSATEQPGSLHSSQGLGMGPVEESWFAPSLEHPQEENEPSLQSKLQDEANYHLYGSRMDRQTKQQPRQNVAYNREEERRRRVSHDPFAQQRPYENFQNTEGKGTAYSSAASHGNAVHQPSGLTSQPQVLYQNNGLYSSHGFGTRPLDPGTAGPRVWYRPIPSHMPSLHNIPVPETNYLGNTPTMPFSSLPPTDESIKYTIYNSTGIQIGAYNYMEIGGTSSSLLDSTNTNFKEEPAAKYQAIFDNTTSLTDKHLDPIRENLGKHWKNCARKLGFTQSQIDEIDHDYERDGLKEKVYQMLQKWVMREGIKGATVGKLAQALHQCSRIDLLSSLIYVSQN
As to the method: (§1) Kinase assays. For most assays, kinase-tagged T7 phage strains were grown in parallel in 24-well blocks in an E. coli host derived from the BL21 strain. E. coli were grown to log-phase and infected with T7 phage from a frozen stock (multiplicity of infection=0.4) and incubated with shaking at 32° C. until lysis (90-150 minutes).

The target of assay [2] is T2, Mixed lineage kinase domain-like protein (Homo sapiens, UniProt Q8NB16).
T2 sequence (Q8NB16 whole entry): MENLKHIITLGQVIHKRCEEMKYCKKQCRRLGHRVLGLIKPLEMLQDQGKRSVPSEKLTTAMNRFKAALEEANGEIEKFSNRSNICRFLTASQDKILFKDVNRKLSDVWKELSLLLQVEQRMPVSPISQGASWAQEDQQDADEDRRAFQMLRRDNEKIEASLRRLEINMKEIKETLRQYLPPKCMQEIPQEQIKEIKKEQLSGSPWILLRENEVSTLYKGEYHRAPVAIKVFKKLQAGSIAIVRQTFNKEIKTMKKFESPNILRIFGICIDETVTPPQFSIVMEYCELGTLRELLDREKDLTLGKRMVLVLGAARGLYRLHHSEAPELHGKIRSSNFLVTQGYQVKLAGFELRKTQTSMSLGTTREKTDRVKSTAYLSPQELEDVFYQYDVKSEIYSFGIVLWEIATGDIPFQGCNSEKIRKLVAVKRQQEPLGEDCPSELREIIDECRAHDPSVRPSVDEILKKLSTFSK
Here is the method:
as §1

Assay [3] concerns the target Receptor-interacting serine/threonine-protein kinase 3 (Homo sapiens, UniProt Q9Y572). As to the method:
as §1

pKd: −log10 of the molar value. A value given as a limit tells only on which side of the number the result lay.

Receptor-interacting serine/threonine-protein kinase 3, sequence (Q9Y572 whole entry): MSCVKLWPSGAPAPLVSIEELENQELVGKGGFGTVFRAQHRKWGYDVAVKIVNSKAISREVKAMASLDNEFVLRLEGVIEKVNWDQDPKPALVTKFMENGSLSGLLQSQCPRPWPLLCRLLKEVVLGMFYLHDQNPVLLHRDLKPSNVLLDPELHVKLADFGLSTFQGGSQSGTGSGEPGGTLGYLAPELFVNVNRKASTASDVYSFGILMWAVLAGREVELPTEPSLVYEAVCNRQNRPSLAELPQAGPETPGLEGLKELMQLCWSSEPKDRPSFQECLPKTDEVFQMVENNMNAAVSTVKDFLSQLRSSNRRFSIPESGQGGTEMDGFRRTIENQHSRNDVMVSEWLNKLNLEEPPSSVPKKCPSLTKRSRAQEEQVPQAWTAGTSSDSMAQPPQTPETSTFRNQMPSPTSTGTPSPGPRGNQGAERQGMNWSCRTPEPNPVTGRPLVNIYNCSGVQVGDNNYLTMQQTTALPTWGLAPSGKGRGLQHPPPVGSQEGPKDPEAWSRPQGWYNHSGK

As to `C[C@H](Oc1cc(-c2n[nH]c(Nc3cc(C4CC4)on3)c2C(N)=O)ccc1NS(=O)(=O)C(F)F)c1ccc(F)cc1` [US20250074891, Compound 310], the pKd in assay [1] was less than 4.52; in assay [2], more than 8.00; in assay [3], less than 4.52.

As to `CCS(=O)(=O)Nc1ccc(-c2n[nH]c(Nc3cccc(C(F)F)n3)c2C(N)=O)cc1` [US20250074891, Compound 92], the pKd in assay [1] was less than 4.52; in assay [2], more than 8.00.

For `CCOc1nccc(Nc2[nH]nc(-c3ccc(NS(=O)(=O)CC)cc3)c2C(N)=O)n1` [US20250074891, Compound 98], the figures for the pKd in assay [1], in assay [2] and in assay [3] were less than 4.52, more than 8.00 and less than 4.52, respectively.

For the compound `CCS(=O)(=O)Nc1ccc(-c2n[nH]c(Nc3cnccn3)c2C(N)=O)cc1OC1CCCc2cc(F)ccc21` (stereo not given) [US20250074891, Compound 224], the pKd is less than 4.52 in assay [1], more than 8.00 in assay [2] and less than 4.52 in assay [3].

Consider `C[C@H](Oc1cc(-c2n[nH]c(Nc3cc(C4(C)CCOCC4)on3)c2C(N)=O)ccc1NS(=O)(=O)C(F)F)c1ccc(F)cc1` [US20250074891, Compound 301], for which the pKd in assay [1] was less than 4.52; in assay [2] it was more than 8.00; in assay [3] it was less than 4.52.

As to `NC(=O)c1c(-c2ccc(NS(=O)(=O)CC(F)(F)F)c(OCc3ccc(F)cc3)c2)n[nH]c1Nc1cccc(C(F)(F)F)n1`, the pKd in assay [1] and in assay [3] was less than 4.52 throughout. Also, the Kd result in assay [2] is “in the range around 0.505 µM”.

With `NC(=O)c1c(-c2ccc(NS(=O)(=O)Cc3ccc(Cl)cc3)cc2)n[nH]c1Nc1cccc(C(F)(F)F)n1` [US20250074891, Compound 60], the pKd in assay [1] and in assay [3] was less than 4.52 in each case.

Compound `Cc1ncsc1-c1ccc(CNC(=O)[C@@H]2C[C@@H](O)CN2C(=O)[C@@H](NC(=O)CCCCOc2ccc(Nc3[nH]nc(-c4ccc(NS(=O)(=O)C(F)F)c(OCc5ccc(F)cc5)c4)c3C(N)=O)nc2)C(C)(C)C)cc1` [US20250074891, Compound 1025] showed a pKd in assay [2] of more than 8.00.
